What was measured:
WAT derived ADMSCs = test: Neutral lipid staining of ADMSCs differentiated on adhesion peptide coated TCPS; format: cell-based, mouse; settings: neutral lipid staining after differentiation on peptide coated TCPS
Method: Fat depots from L2G85 (FVB/NJ) or C57BL6/J mice, perigonadal (visceral) or inguinal (subcutaneous) respectively, were isolated post mortem from 3 month old mice. These fat depots were washed with sterile phosphate buffered saline (PBS) for 10 minutes. The tissues were then minced with scissors into fragments smaller than 1 mm and digested in 0.1% type II collagenase (Gibco) in DMEM with 5% bovine serum albumin (BSA) (Fisher) for 1 hr at room temperature (RT) on an orbital shaker. The digest was then filtered through sterile gauze and centrifuged at 400×RCF for 10 minutes. The cell pellet was then suspended in an erythrocyte lysis buffer 155 mM NH4Cl, 5.7 mM K2HPO4, 0.1 mM EDTA in ultrapure water for 10 m minutes. The resulting suspension was then centrifuged at 400×RCF for 10 minutes to pellet the ADMSCs. The resulting ADMSC pellet was suspended in DMEM with 10% fetal bovine serum (FBS) and 1% P/S and plated on TCPS. […]
FIGS. 1A-F: Effects of adhesion ligands ADMSC differentiation. […] C) Quantitative rtPCR analysis of UCP1 expression of WAT derived murine ADMSCs that were differentiated on indicated adhesion substrate coated TCPS (see Tab. […] D) Quantitative rtPCR analysis of UCP1 expression of WAT derived ADMSCs differentiated on mixtures of Ag73 and C16 (n=6). […] F) Quantitative rtPCR analysis of UCP1 expression of WAT derived ADMSCs differentiated on mixtures of Ag73 and Ag32 (n=6).

[1] = system: WAT derived murine ADMSCs; test: UCP1 expression (quantitative rtPCR) of ADMSCs differentiated on adhesion peptide coated TCPS; format: cell-based, mouse; settings: ADMSCs differentiated on single peptide coated TCPS; vs uncoated TCPS
Method: Fat depots from L2G85 (FVB/NJ) or C57BL6/J mice, perigonadal (visceral) or inguinal (subcutaneous) respectively, were isolated post mortem from 3 month old mice. These fat depots were washed with sterile phosphate buffered saline (PBS) for 10 minutes. The tissues were then minced with scissors into fragments smaller than 1 mm and digested in 0.1% type II collagenase (Gibco) in DMEM with 5% bovine serum albumin (BSA) (Fisher) for 1 hr at room temperature (RT) on an orbital shaker. The digest was then filtered through sterile gauze and centrifuged at 400×RCF for 10 minutes. […]
Purified peptides were suspended at 20 μM in ultrapure water with 1% P/S. In 24 well TC plates (BD Falcon, 353047), 20 μM peptide suspensions were added to each well. […] The adherent and non adherent cells were then counted with the CyQuant kit (Invitrogen).
Tissue samples suspended in RNALater ICE (Ambion) and stored at −20° C. mRNA was isolated from RNALater ICE stabilized tissues or directly from in vitro cultures of monolayers or cell laden hydrogels with Trizol reagent (Ambion). […] Established delta delta CT method was employed to comparatively assess mRNA quantity. […]
FIGS. 1A-F: Effects of adhesion ligands ADMSC differentiation. […] C) Quantitative rtPCR analysis of UCP1 expression of WAT derived murine ADMSCs that were differentiated on indicated adhesion substrate coated TCPS (see Tab. […]

Row | Sequence | lipid accumulation (WAT derived ADMSCs) | UCP1 expression [1]
1 | CGGKAFDITYVRLKF [C16, α5β1/3 integrin-engaging ligand, laminin γ1 chain peptide with N-terminal CGG] | significantly greater lipid accumulation | 
2 | CGGRKRLQVQLSIRT [AG73, adhesion ligand for α6 integrins and syndecan-1, laminin a1 chain peptide with N-terminal CGG] |  | particularly efficient in driving UCP1 expression

From patent publication US10150948B2, “Compositions and methods for producing and administering brown adipocytes” (The Regents of the University of California, priority 2013, dated 2018)
